In ChEMBL document CHEMBL1201862, “PubChem BioAssay data set” (2004):
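Tested at 5 concentrations; 48 h exposure; 96-well plates; endpoints linearly interpolated, else capped at highest concentration. GI50 is the concentration that inhibits growth by half.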 The source made the active and inactive calls. Rule as the data show it: active = GI50 up to about 1.1 µM and inactive = higher.

Experiments:
Test in all cases: NCI anticancer screen, dose series, 48 h
[1] = system: HOP-62
[2] = system: CAKI-1
[3] = system: SK-MEL-28
[4] = system: K562
[5] = system: HCT-15
[6] = system: OVCAR-4
[7] = system: SW-620
[8] = system: NCI-H226
[9] = system: SK-OV-3
[10] = system: IGROV-1
[11] = system: Malme-3M
[12] = system: SF-268
[13] = system: SR
[14] = system: OVCAR-5
[15] = system: PC-3
[16] = system: HL-60
[17] = system: SK-MEL-5
[18] = system: SK-MEL-2
[19] = system: COLO 205
[20] = system: T47D
[21] = system: 786-0
[22] = system: HT-29
[23] = system: OVCAR-3
[24] = system: NCI/ADR-RES
[25] = system: M14
[26] = system: TK-10
[27] = system: UACC-257
[28] = system: UO-31
[29] = system: CCRF-CEM
[30] = system: RXF 393
[31] = system: RPMI-8226
[32] = system: SNB-75
[33] = system: U-251
[34] = system: OVCAR-8
[35] = system: MDA-MB-435
[36] = system: KM12
[37] = system: BT-549
[38] = system: EKVX
[39] = system: SF-539
[40] = system: UACC-62
[41] = system: A498
[42] = system: DU-145
[43] = system: LOX IMVI
[44] = system: NCI-H460
[45] = system: MCF7
[46] = system: SNB-19
[47] = system: NCI-H522
[48] = system: MOLT-4
[49] = system: A549
[50] = system: HCT-116
[51] = system: SF-295
[52] = system: Hs-578T
[53] = system: SN12C
[54] = system: ACHN
[55] = system: HCC 2998
[56] = system: MDA-N
[57] = system: MDA-MB-231
[58] = system: NCI-H23
[59] = system: HOP-92

## COc1ccccc1NC(=S)Nc1cccc(C)n1
[1]
  GI50: 43.6 µM (inactive)
[2]
  GI50: 88.5 µM (inactive)
[3]
  GI50: > 100 µM (inactive)
[4]
  GI50: > 100 µM (inactive)
[5]
  GI50: > 100 µM
[6]
  GI50: > 100 µM (inactive)
[7]
  GI50: > 100 µM (inactive)
[8]
  GI50: 36.9 µM (inactive)
[9]
  GI50: > 100 µM (inactive)
[10]
  GI50: 31.8 µM (inactive)
[11]
  GI50: 16.7 µM (inactive)
[12]
  GI50: 18.4 µM (inactive)
[13]
  GI50: > 100 µM (inactive)
[14]
  GI50: > 100 µM (inactive)
[15]
  GI50: > 100 µM (inactive)
[16]
  GI50: > 100 µM (inactive)
[17]
  GI50: > 100 µM (inactive)
[18]
  GI50: > 100 µM (inactive)
[19]
  GI50: > 100 µM (inactive)
[20]
  GI50: > 100 µM (inactive)
[21]
  GI50: 79.3 µM (inactive)
[22]
  GI50: 45.3 µM (inactive)
[23]
  GI50: > 100 µM (inactive)
[24]
  GI50: > 100 µM (inactive)
[25]
  GI50: > 100 µM (inactive)
[26]
  GI50: > 100 µM (inactive)
[27]
  GI50: > 100 µM (inactive)
[28]
  GI50: > 100 µM (inactive)
[29]
  GI50: > 100 µM (inactive)
[30]
  GI50: > 100 µM (inactive)
[31]
  GI50: > 100 µM (inactive)
[32]
  GI50: 1.07 µM (active)
[33]
  GI50: > 100 µM (inactive)
[34]
  GI50: > 100 µM (inactive)
[35]
  GI50: > 100 µM (inactive)
[36]
  GI50: 25.6 µM (inactive)
[37]
  GI50: > 100 µM (inactive)
[38]
  GI50: 16.2 µM (inactive)
[39]
  GI50: > 100 µM (inactive)
[40]
  GI50: 42.4 µM (inactive)
[41]
  GI50: > 100 µM (inactive)
[42]
  GI50: > 100 µM (inactive)
[43]
  GI50: > 100 µM (inactive)
[44]
  GI50: > 100 µM (inactive)
[45]
  GI50: > 100 µM (inactive)
[46]
  GI50: > 100 µM (inactive)
[47]
  GI50: 2.84 µM (inactive)
[48]
  GI50: > 100 µM (inactive)
[49]
  GI50: > 100 µM (inactive)
[50]
  GI50: > 100 µM (inactive)
[51]
  GI50: 69 µM (inactive)
[52]
  GI50: 37.2 µM (inactive)
[53]
  GI50: > 100 µM (inactive)

## O=C(/C=C/c1ccc(Cl)cc1)c1cccs1
[54]
  GI50: 20 µM (inactive)
[1]
  GI50: 26.5 µM (inactive)
[2]
  GI50: 24 µM (inactive)
[3]
  GI50: 26.2 µM (inactive)
[4]
  GI50: 4.03 µM (inactive)
[5]
  GI50: 17.5 µM
[6]
  GI50: > 10 µM (inactive)
[7]
  GI50: 12.9 µM (inactive)
[8]
  GI50: 22.4 µM (inactive)
[9]
  GI50: 26.4 µM (inactive)
[10]
  GI50: 29.9 µM (inactive)
[11]
  GI50: 16.6 µM (inactive)
[12]
  GI50: 29.7 µM (inactive)
[13]
  GI50: 6.24 µM (inactive)
[55]
  GI50: 18.6 µM (inactive)
[15]
  GI50: 18.2 µM (inactive)
[16]
  GI50: 7.19 µM (inactive)
[17]
  GI50: 18.2 µM (inactive)
[18]
  GI50: 24.5 µM (inactive)
[19]
  GI50: 19.3 µM (inactive)
[56]
  GI50: 16.3 µM (inactive)
[20]
  GI50: 21 µM (inactive)
[21]
  GI50: 15 µM (inactive)
[22]
  GI50: 16.5 µM (inactive)
[57]
  GI50: 20 µM (inactive)
[24]
  GI50: 24.3 µM (inactive)
[25]
  GI50: 20.9 µM (inactive)
[26]
  GI50: 20.8 µM (inactive)
[27]
  GI50: 19.6 µM (inactive)
[28]
  GI50: 18 µM (inactive)
[29]
  GI50: 6.61 µM (inactive)
[31]
  GI50: 3.1 µM (inactive)
[32]
  GI50: 22.5 µM (inactive)
[33]
  GI50: 16 µM (inactive)
[34]
  GI50: 21.7 µM (inactive)
[35]
  GI50: 13 µM (inactive)
[36]
  GI50: 13.9 µM (inactive)
[38]
  GI50: 26.6 µM (inactive)
[58]
  GI50: > 10 µM (inactive)
[39]
  GI50: 34.3 µM (inactive)
[40]
  GI50: 21 µM (inactive)
[41]
  GI50: 23.3 µM (inactive)
[42]
  GI50: 40.6 µM (inactive)
[43]
  GI50: 11.4 µM (inactive)
[44]
  GI50: 18.4 µM (inactive)
[45]
  GI50: 3.62 µM (inactive)
[46]
  GI50: 18.2 µM (inactive)
[48]
  GI50: 15.7 µM (inactive)
[49]
  GI50: 29.1 µM (inactive)
[50]
  GI50: 14.8 µM (inactive)
[51]
  GI50: 20 µM (inactive)
[52]
  GI50: 36 µM (inactive)
[53]
  GI50: 16.5 µM (inactive)

## CCOC(=O)c1c(SCc2ccccc2)nc2c3ccccc3ccn12
[54]
  GI50: 24 µM (inactive)
[1]
  GI50: 40.1 µM (inactive)
[2]
  GI50: > 100 µM (inactive)
[3]
  GI50: > 100 µM (inactive)
[4]
  GI50: > 100 µM (inactive)
[5]
  GI50: > 100 µM
[6]
  GI50: 56 µM (inactive)
[7]
  GI50: > 100 µM (inactive)
[8]
  GI50: 33.7 µM (inactive)
[9]
  GI50: 52.7 µM (inactive)
[10]
  GI50: 38.9 µM (inactive)
[11]
  GI50: 63.7 µM (inactive)
[12]
  GI50: 94 µM (inactive)
[13]
  GI50: 47 µM (inactive)
[14]
  GI50: > 100 µM (inactive)
[55]
  GI50: > 100 µM (inactive)
[15]
  GI50: > 100 µM (inactive)
[16]
  GI50: > 100 µM (inactive)
[17]
  GI50: > 100 µM (inactive)
[18]
  GI50: > 100 µM (inactive)
[19]
  GI50: > 100 µM (inactive)
[56]
  GI50: > 100 µM (inactive)
[20]
  GI50: > 100 µM (inactive)
[21]
  GI50: > 100 µM (inactive)
[22]
  GI50: > 100 µM (inactive)
[57]
  GI50: > 100 µM (inactive)
[24]
  GI50: > 100 µM (inactive)
[25]
  GI50: > 100 µM (inactive)
[27]
  GI50: > 100 µM (inactive)
[29]
  GI50: > 100 µM (inactive)
[30]
  GI50: 70.6 µM (inactive)
[31]
  GI50: > 100 µM (inactive)
[32]
  GI50: 25.9 µM (inactive)
[59]
  GI50: 1.72 µM (inactive)
[33]
  GI50: 57.7 µM (inactive)
[34]
  GI50: 83.6 µM (inactive)
[35]
  GI50: > 100 µM (inactive)
[36]
  GI50: > 100 µM (inactive)
[38]
  GI50: > 100 µM (inactive)
[58]
  GI50: > 100 µM (inactive)
[39]
  GI50: 79.4 µM (inactive)
[40]
  GI50: > 100 µM (inactive)
[41]
  GI50: 54.5 µM (inactive)
[42]
  GI50: > 100 µM (inactive)
[43]
  GI50: > 100 µM (inactive)
[44]
  GI50: 55.6 µM (inactive)
[45]
  GI50: > 100 µM (inactive)
[47]
  GI50: 37.2 µM (inactive)
[48]
  GI50: > 100 µM (inactive)
[49]
  GI50: > 100 µM (inactive)
[50]
  GI50: > 100 µM (inactive)
[51]
  GI50: 40.7 µM (inactive)
[52]
  GI50: 21.4 µM (inactive)
[53]
  GI50: > 100 µM (inactive)
